Results reported in patent publication US11333660B2, “Analytical process for predicting the therapeutic effect of BH3 mimetics” (MEDIZINISCHE HOCHSCHULE HANNOVER, priority 2017, dated 2022).

Legend:
SUP-B15 cells = experiment: propidium iodide (PI) staining of SUP-B15 cells; format: cell-based; details: 1 μM, 24 h process
Method: (§1) As a positive control, FCCP was added to one aliquot of the cell suspension to 5 μM final concentration. TMRE fluorescence was measured by FACS after 30 min incubation after addition of TMRE.
For comparison, apoptosis was measured by propidium iodide (PI) staining, the entire process having a duration of 24 h.

[1] = tested on: CD19+ lymphoma cells in PBMC of a mantle-cell lymphoma patient; experiment: TMRE FACS on live CD19+ cells of PBMC from a mantle-cell lymphoma patient; format: cell-based, human; details: 3 h; for effect of inducing MOMP (reduced TMRE fluorescence in CD19+ cells): 1 μM, FIG. 7; for % (MeanFL relative to negative control) / MeanFL (mean TMRE fluorescence for the live CD19+ cells): CD19 gate, BH3 mimetics 1000 nM
Method: From a blood sample that was drawn from a patient diagnosed to have mantle-cell lymphoma, PBMC were isolated by density gradient centrifugation and suspended in cell culture medium. No further separation of cells was done but all the PBMC were contained in each aliquot dispensed from the isolated PBMC. […] For measurement, TMRE was added for measuring mitochondrial membrane potential, and for discriminating CD19+ lymphoma cells from normal CD19− cells, anti-CD19 antibody, APC-labelled, was added.
Measurement was by FACS after 3 h incubation under cell culture conditions subsequent to addition of the compounds to the aliquots of the cells.
The FACS results shown in FIG. 7 were taken in one measurement for each aliquot. […] This gating was applied to the measurement of the dye of the anti-CD19 antibody (CD19 APC) as shown in the center column (b, e, h, k, n, q) (R2). The measurement results for the viable lymphoma CD19+ cells in relation to MOMP are shown in the right hand column (c, f, i, l, o, r), with TMRE fluorescence indicating MOMP, i.e. lower TMRE fluorescence indicating increased MOMP.

PBMC from healthy donors = experiment: TMRE FACS on PBMC from healthy volunteers; format: cell-based, human; details: ABT-199 1 μM, 3 h, healthy donors (n=6)
Method: (§2) PBMC or BM mononuclear cells were isolated by density gradient centrifugation from blood or bone marrow samples originating from patients who were newly diagnosed as ALL (n=12), from blood or bone marrow samples originating from CML patients in chronic phase (CML-CP, n=7), and from blood samples obtained from healthy volunteers (n=6). In accordance with the analytical process, PBMC or BM cells were incubated in cell culture medium with ABT-199 added to 1 μM for 3 h at 37° C. in a 5% CO2 atmosphere for cell culture conditions, followed by addition of TMRE to 50 nM and incubation for another 30 min, then analysed by FACS for fluorescence by TMRE.

PBMC from a CLL patient = experiment: TMRE FACS on PBMC from a CLL patient; format: cell-based, human; details: 3 h, ABT-199 1 μM, FCCP 5 μM, mock MFI 121
Method: (§3) PBMC were isolated by density gradient centrifugation using Biocoll from the heparinized blood sample of a patient diagnosed to have CLL (ABT-199, Venetoclax, is approved for treatment of CLL with 17p-deletion). As a comparison, PBMC from a healthy donor were isolated. PBMC were suspended in RPMI1640 cell culture medium and transferred as aliquots into separate tubes, to which ABT-199 was added to a final concentration of 1 μM and incubated at 37° C. for 3 h in a 5% CO2 atmosphere. Subsequently, TMRE was added to 50 nM and aliquots were further incubated for 30 min, then analysed by FACS according to the invention. As a negative control (mock), physiological saline was added, as a positive control FCCP to 5 μM (FCCP).

[2] = tested on: PBMC or BM mononuclear cells from ALL patients; experiment: TMRE FACS on PBMC or BM cells from ALL patients; format: cell-based, human; details: ABT-199 1 μM, 3 h, ALL samples (n=12)
Method: as §2

[3] = tested on: PBMC from a healthy donor; experiment: TMRE FACS on PBMC from a healthy donor; format: cell-based, human; details: 3 h, ABT-199 1 μM, FCCP 5 μM, mock MFI 232
Method: as §3

[4] = tested on: human CD45+ cells (BV173) from spleen of untreated control mouse; experiment: TMRE FACS on human CD45+ spleen cells from the control mouse; format: cell-based; details: for TMRE fluorescence relative to 100% at beginning: FCCP 5 μM 15 min; for TMRE fluorescence / MOMP (FIG. 10): control mouse CD45+ cells, 1 μM, 1 h
Method: (§4) Cells were concurrently immunologically stained with APC-labelled anti-human CD45 antibody, to discriminate human leukemic from murine cells, and with TMRE. Measurement was by FACS, with gating for live human cells.
[…] Concurrently, the cells were immunologically stained by adding a APC-labelled anti-human CD45 antibody to identify the tumour cells, and by adding TMRE. After 1 h, cells were analysed by FACS, with the gating set according to side scatter and forward scatter to select for live cells, and to select for CD45+ cells showing TMRE fluorescence.

[5] = tested on: B-ALL cell line SUP-B15 (BCR-ABL-positive); experiment: TMRE FACS measurement of MOMP in SUP-B15 cells; format: cell-based; details: 3 h
Method: As representatives for isolated PBMC, BM or LN mononuclear cells, the B-ALL cell lines SUP-B15, which expresses BCR-ABL (BCR-ABL-positive), and the BCR-ABL negative REH were used in the analytical process in suspension in cell culture medium RPMI1640. […] After incubation at 37° C. for 3 h, TMRE was added to a final concentration of 50 nM and the aliquots were incubated for further 15 min at 37° C., in a 5% CO2 atmosphere each time.
as §1

[6] = tested on: BCR-ABL negative REH cells; experiment: TMRE FACS measurement of MOMP in REH cells; format: cell-based; details: ABT-199 10 nM, 3 h
Method: As representatives for isolated PBMC, BM or LN mononuclear cells, the B-ALL cell lines SUP-B15, which expresses BCR-ABL (BCR-ABL-positive), and the BCR-ABL negative REH were used in the analytical process in suspension in cell culture medium RPMI1640. As a positive control for MOMP, FCCP was added to 5 μM to one aliquot, as a negative control an aliquot of the suspended cells was used with addition of the same volume of physiological saline, and ABT-199 was added to 10 nM final concentration. After incubation at 37° C. for 3 h, TMRE was added to a final concentration of 50 nM and the aliquots were incubated for further 15 min at 37° C., in a 5% CO2 atmosphere each time.

[7] = tested on: PBMC or BM mononuclear cells from CML patients in chronic phase; experiment: TMRE FACS on PBMC or BM cells from CML-CP patients; format: cell-based, human; details: ABT-199 1 μM, 3 h, CML-CP samples (n=7)
Method: as §2

PBMC = experiment: analytical process: TMRE fluorescence by FACS on PBMC aliquots (FIG. 1b); format: cell-based
Method: In this analysis incubation of PBMC aliquots in cell culture medium with the pharmaceutical compound, negative control or positive control was for 30 min, incubation after subsequent addition of fluorescent dye TMRE was for 10 min, both at 37° C., 5% CO2 atmosphere as cell culture conditions.

[8] = tested on: human CD45+ cells (BV173) from spleen of ABT-199/DEX/DAS treated mouse; experiment: TMRE FACS on human CD45+ spleen cells from the ABT-199/DEX/DAS treated mouse; format: cell-based; details: for TMRE fluorescence relative to 100% at beginning: ABT-199/DEX/DAS treated mouse spleen CD45+ cells, ABT-199 10 μM 1 h, FCCP 5 μM 15 min; for TMRE fluorescence / MOMP (FIG. 10): ABT-199/DEX/DAS treated mouse CD45+ cells, 1 μM, 1 h
Method: as §4
One of these BH3 mimetics was added to a separate aliquot of the cells suspended in cell culture medium to a final concentration of 1 μM. Concurrently, the cells were immunologically stained by adding a APC-labelled anti-human CD45 antibody to identify the tumour cells, and by adding TMRE. After 1 h, cells were analysed by FACS, with the gating set according to side scatter and forward scatter to select for live cells, and to select for CD45+ cells showing TMRE fluorescence.

[9] = tested on: in vitro cultivated BV173 cells; experiment: TMRE FACS on in vitro cultivated BV173 cells; format: cell-based, human; details: in vitro cultured BV173, ABT-199 10 μM 1 h; for TMRE fluorescence relative to 100% at beginning: FCCP 5 μM 15 min
[10] = tested on: blood cells obtained from a CLL patient; details: 6 h after contact in vitro; cited from earlier work
[11] = CD19+ cells, BH3 mimetics 1 μM, FCCP 5 μM, in comparison to the negative control
[12] = control mouse spleen CD45+ cells, ABT-199 10 μM 1 h

## CC1(C)CCC(CN2CCN(c3ccc(C(=O)NS(=O)(=O)c4ccc(NCC5CCOCC5)c([N+](=O)[O-])c4)c(Oc4cnc5[nH]ccc5c4)c3)CC2)=C(c2ccc(Cl)cc2)C1 [ABT-199]
SUP-B15 cells
  induction of apoptosis by PI staining: significant induction of apoptosis
[1]
  effect of inducing MOMP (reduced TMRE fluorescence in CD19+ cells): effective in inducing MOMP
[1]; [11]
  mean TMRE fluorescence relative to negative control: 9.3%
[1]; FCCP 5 μM
  % (MeanFL relative to negative control): 9.3%
  MeanFL (mean TMRE fluorescence for the live CD19+ cells): 65
PBMC from healthy donors
  induction of apoptosis (TMRE FACS): essentially no induction of apoptosis
PBMC from a CLL patient
  MFI (TMRE): 53
[2]
  induction of apoptosis (TMRE FACS): strong induction of apoptosis
[3]
  MFI (TMRE): 242
[4]; [12]
  proportion of cells with MOMP: 40%
  TMRE fluorescence relative to 100% at beginning: approx. 60%
[5]; 1 μM
  induction of apoptosis by the process of the invention (TMRE): significant induction of apoptosis
[5]; ABT-199 10 nM, versus negative control
  reduction of MFI (TMRE): approx. 40%
[6]
  MFI (TMRE) in comparison to the negative control: essentially remains unaffected
[7]
  induction of apoptosis (TMRE FACS): essentially no induction of apoptosis
PBMC; ABT-199 5 μM to 10 μM, 30 min incubation
  FACS peak distribution of TMRE fluorescence: the peak at the position of the positive control increasing with the concentration
[8]
  TMRE fluorescence relative to 100% at beginning: no response
[9]
  proportion of cells with MOMP: 40%
  TMRE fluorescence relative to 100% at beginning: approx. 60%

## N#CC(C#N)=NNc1ccc(OC(F)(F)F)cc1 [FCCP, carbonyl cyanide-4-(trifluoro-methoxy)phenylhydrazone]
[1]; [11]
  mean TMRE fluorescence relative to negative control: 15.6%
[1]; FCCP 5 μM
  % (MeanFL relative to negative control): 15.6%
  MeanFL (mean TMRE fluorescence for the live CD19+ cells): 109
PBMC from a CLL patient
  MFI (TMRE): 60
[3]
  MFI (TMRE): 106
[4]; [12]
  TMRE fluorescence relative to 100% at beginning: ~20%
PBMC; incubation 30 min, TMRE 10 min, 37° C., negative control MFI 612
  mean fluorescence intensity (MFI) of TMRE: 95
[8]
  TMRE fluorescence relative to 100% at beginning: ~20%
[9]
  TMRE fluorescence relative to 100% at beginning: ~20%

## Cc1c(-c2c(-c3ccc(F)o3)sc3ncnc(O[C@H](Cc4ccccc4OCc4ccnn4CC(F)(F)F)C(=O)O)c23)ccc(OCCN2CCN(C)CC2)c1Cl [S63845]
[1]
  effect of inducing MOMP (reduced TMRE fluorescence in CD19+ cells): less pronounced effect
[1]; [11]
  proportion of cells without MOMP: 56.7%
[1]; FCCP 5 μM
  % (MeanFL relative to negative control): 56.7%
  MeanFL (mean TMRE fluorescence for the live CD19+ cells): 396
[4]
  TMRE fluorescence / MOMP (FIG. 10): high TMRE fluorescence
[8]
  TMRE fluorescence / MOMP (FIG. 10): high TMRE fluorescence

## CN(C)CC[C@H](CSc1ccccc1)Nc1ccc(S(=O)(=O)NC(=O)c2ccc(N3CCN(Cc4ccccc4-c4ccc(Cl)cc4)CC3)cc2)cc1[N+](=O)[O-] [ABT-737]
[1]
  effect of inducing MOMP (reduced TMRE fluorescence in CD19+ cells): effective in inducing MOMP
[1]; [11]
  mean TMRE fluorescence relative to negative control: 9.9%
[1]; FCCP 5 μM
  % (MeanFL relative to negative control): 9.9%
  MeanFL (mean TMRE fluorescence for the live CD19+ cells): 69
[4]
  TMRE fluorescence / MOMP (FIG. 10): reduced TMRE fluorescence
[8]
  TMRE fluorescence / MOMP (FIG. 10): reduced TMRE fluorescence

## CN1CC[C@H](c2c(O)cc(O)c3c(=O)cc(-c4ccccc4Cl)oc23)[C@H](O)C1 [Flavopiridol]
[10]
  mitochondrial membrane depolarization (JC-1): mitochondrial membrane depolarization was detected

## Cc1c(-c2ccc(N3CCc4cccc(C(=O)Nc5nc6ccccc6s5)c4C3)nc2C(=O)O)cnn1CC12CC3CC(CC(C3)C1)C2 [A1331852]
[1]
  effect of inducing MOMP (reduced TMRE fluorescence in CD19+ cells): less pronounced effect
[1]; [11]
  mean TMRE fluorescence relative to negative control: 29.1%
[1]; FCCP 5 μM
  % (MeanFL relative to negative control): 29.1%
  MeanFL (mean TMRE fluorescence for the live CD19+ cells): 203
[4]
  TMRE fluorescence / MOMP (FIG. 10): strongly reduced TMRE fluorescence
[8]
  TMRE fluorescence / MOMP (FIG. 10): strongly reduced TMRE fluorescence
